Results: patent US20120035214A1, “RENIN INHIBITORS” (Merck Canada Inc., priority 2009, published 2012)

Tests used:
Human recombinant renin = target: T1, Human recombinant renin (Homo sapiens, UniProt P00797); assay: Inhibition of human recombinant renin (QFRET, buffer); type: biochemical; settings: buffer: 50 mM MOPS pH 7.4, 100 mM NaCl, 0.002% Tween 20; 37° C., 3 hours
T1 construct: purchased Proteos
T1 sequence (P00797 67-406): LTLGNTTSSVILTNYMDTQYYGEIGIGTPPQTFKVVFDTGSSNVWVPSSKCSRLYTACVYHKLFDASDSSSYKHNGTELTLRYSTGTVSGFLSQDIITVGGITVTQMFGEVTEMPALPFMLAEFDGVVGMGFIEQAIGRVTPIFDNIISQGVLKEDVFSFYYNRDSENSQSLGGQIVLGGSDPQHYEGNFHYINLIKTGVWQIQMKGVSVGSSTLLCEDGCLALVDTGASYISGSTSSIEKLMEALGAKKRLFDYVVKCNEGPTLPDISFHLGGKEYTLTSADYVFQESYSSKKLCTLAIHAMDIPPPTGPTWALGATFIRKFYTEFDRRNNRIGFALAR
Protocol: Inhibition of Human Recombinant Renin
Human recombinant renin (Proteos) in 50 mM MOPS pH 7.4, 100 mM NaCl, 0.002% Tween 20 at a final concentration of […] is incubated with inhibitors from a 50 fold concentrated DMSO solution and 6 μM of an internally-quenched fluorescent peptide: DNP-[…]D,L-Amp (SEQ ID NO: 1); Paschalidou K. et al., Biochem J., 2004, 382, 1031). The reactions take place in a Costar 384 well black plate (#3573) at 37° C. for 3 hours. Fluorescence is measured at times 0 and 3 hours with a SpectraMax Gemini EM reader set at an excitation wavelength of 328 nm and at an emission wavelength of 388 nm. Background fluorescence at t=0 is subtracted from the measurement at t=3 hours. Inhibitory activity of the compounds is expressed as IC50.

[1] = target: T2, recombinant renin in human plasma (Homo sapiens, UniProt P00797); assay: Inhibition of renin in human plasma (QFRET, plasma); type: biochemical; settings: human EDTA plasma with 1 nM recombinant renin added; 37° C., 1 hour
T2 construct: purchased Proteos
T2 sequence (P00797 67-406): T1 sequence (P00797 67-406)
Protocol: Inhibition of Renin in Human Plasma
Human EDTA-collected plasma is rapidly thawed in warm water and centrifuged at 2900 g for 15 minutes at 4° C. The supernatant is collected and recombinant renin (Proteos) is added at a final concentration of 1 nM. The plasma is transferred to a Costar black 384 well plate (#3573). Renin inhibitors are added from a 17.5 fold concentrated DMSO solution and pre-incubated at 37° C. for 10 minutes. The internally-quench fluorescent peptide QXL520™-[…](5-FAM) (Anaspec), SEQ ID NO: 2, is diluted in 3M Tris pH 7.2, 200 mM EDTA and added to the plasma. The final concentrations are: 6 μM substrate, 342 mM Tris, 23 mM EDTA. The plate is incubated at 37° C. for 1 hour. The plate is read in a SpectraMax Gemini EM reader set at an excitation wavelength of 490 nm and an emission wavelength of 520 nm at times 0 and 1 hour. Background fluorescence at t=0 is subtracted from the measurement at t=1 hour. Inhibitory activity of the compounds is expressed as IC50.

Structure (SMILES) | IC50 (Human recombinant renin) [nM] | IC50 [1] [nM]
COC[C@H](C)COCc1ccc([C@@]2(O)CCNC[C@@H]2c2ccc(-c3ccccc3CCNC(C)=O)cc2C)nc1 [Structure 130] | 0.075 | 3.8
COCc1ccc2cccc(-c3ccc([C@H]4CNCC[C@@H]4c4cc(F)cc(F)c4)c(C)c3)c2c1 (racemic) [Structure 30] | 100 | 11300
COCC(F)(F)COCc1ccc([C@@]2(O)CCNC[C@@H]2c2ccc(-c3ccccc3CCNC(C)=O)cc2C)cc1 [Structure 121] | 0.08 | 0.32
CC(=O)NCCc1ccccc1-c1ccc([C@H]2CNCC[C@@H]2c2ccc(F)c(F)c2)cc1 (racemic) [Structure 44] | 3.7 | 45
O=C(CO)NCCc1ccccc1-c1onc([C@H]2CNCC[C@]2(O)c2ccc(F)c(F)c2)c1Br [Structure 88] | 0.38 | 1
COC[C@H](C)COCc1ccc([C@@]2(O)CCNC[C@@H]2c2ccc(-c3ccccc3CCNC(C)=O)cc2C)cc1 [Structure 129] | 0.05 | 0.44
CCC(=O)NCCc1ccccc1-c1ccc([C@H]2CNCC[C@@H]2c2ccn(C)c(=O)c2)c(Cl)c1 (racemic) [Structure 61] | 6.2 | 7.9
COC(=O)NCCc1ccccc1-c1ccc([C@H]2CNCC[C@@H]2c2cc(F)cc(F)c2)c(C)c1 (racemic) [Structure 28] | 0.56 | 25
COCCCc1ccccc1-c1ccc([C@H]2CNCC[C@@H]2c2cccnc2N)c(Cl)c1 (racemic) [Structure 53] | 12 | 250
COCC(F)(F)COCc1ccc([C@@]2(O)CCNC[C@@H]2c2ccc(-c3ccccc3CCNC(C)=O)cc2C)cn1 [Structure 120] | 0.66 | 1.2
COCCCc1ccccc1-c1ccc([C@H]2CNCC[C@@H]2c2cc(F)cc(F)c2)c(C)c1 (racemic) [Structure 8] | 4.3 | 1180
CC(=O)NCCc1ccccc1-c1onc([C@H]2CNCC[C@@H]2c2ccc(F)c(F)c2)c1Br [Structure 107] | 0.26 | 1.2
COCC(F)(F)COCc1ccc([C@@]2(O)CCNC[C@@H]2c2ccc(-c3ccccc3CCNC(C)=O)cc2C)cc1 (racemic) [Structure 55] | 0.17 | 0.95
COC(=O)NCCc1ccccc1-c1onc([C@H]2CNCC[C@]2(O)c2ccc(F)c(F)c2)c1C(C)=O [Structure 84] | 10 | 93
O[C@]1(c2ccc(F)c(F)c2)CCNC[C@@H]1c1onc(-c2cccc(Cl)c2Cl)c1Br [Structure 71] | 0.21 | 7.8
CC(=O)NCCc1ccccc1-c1onc([C@H]2CNCC[C@]2(OC(N)=O)c2ccc(F)c(F)c2)c1Br [Structure 118] | 0.22 | 0.55
COC[C@H](C)COCc1ccc([C@@]2(O)CCNC[C@@H]2c2ccc(-c3ccccc3CCNC(=O)CO)cc2C)cc1 [Structure 128] | 0.07 | 0.57
O[C@]1(c2ccc(F)c(F)c2)CCNC[C@@H]1c1onc(-c2ccccc2Cl)c1Br [Structure 72] | 1.1 | 27
O[C@]1(c2ccc(F)c(F)c2)CCNC[C@@H]1c1cc(-c2ccc(F)cc2Br)no1 [Structure 67] | 400 | 8650
COCCCc1ccccc1-c1ccc([C@H]2CNCC[C@]2(O)c2cc(F)cc(F)c2)c(C)c1 (racemic) [Structure 39] | 4.2 | 750
O=C(CO)NCCc1ccccc1-c1ccc([C@H]2CNCC[C@@H]2c2ccc(F)c(F)c2)c(Cl)c1 (racemic) [Structure 43] | 0.26 | 3.5
COCCCc1ccccc1-c1ccc([C@H]2CNCC[C@@H]2c2ccn(C)c(=O)c2)c(Cl)c1 (racemic) [Structure 57] | 6.4 | 80
CC(=O)NCCc1ccccc1-c1onc([C@H]2CNCC[C@]2(O)c2ccc(F)c(F)c2)c1C(C)=O [Structure 83] | 2.8 | 4.2

Structure (SMILES) | IC50 (Human recombinant renin) [nM] | IC50 [1] [nM]
Cc1cc(-c2ccccc2CCNC(=O)C(F)(F)F)ccc1[C@H]1CNCC[C@@H]1c1cc(F)cc(F)c1 (racemic) [Structure 20] | 0.57 | 25
CC(=O)NCCc1ccccc1-c1nnc([C@H]2CN[C@@H](C)C[C@@H]2c2ccc(F)c(F)c2)n1C1CC1 [Structure 94] | 1.5 | 3
CC(=O)NCCc1ccccc1-c1onc([C@H]2CNCC[C@@H]2c2ccc(OCCOc3c(Cl)cc(C)cc3Cl)cc2)c1C(C)=O [Structure 110] | 0.09 | 1.2
Cc1cc(-c2cccc3ccc(O)cc23)ccc1[C@H]1CNCC[C@@H]1c1cc(F)cc(F)c1 (racemic) [Structure 29] | 93 | > 28000
COCCCc1ccccc1-c1ccc([C@H]2CNCC[C@]2(O)c2cccnc2)c(C)c1 (racemic) [Structure 40] | 47 | 1140
O[C@]1(c2ccc(F)c(F)c2)CCNC[C@@H]1c1cc(-c2c(Cl)cccc2Cl)no1 [Structure 68] | 1210 | > 9500
Cc1cc(-c2ccccc2CCNC(=O)c2cnn(C)c2)ccc1[C@H]1CNCC[C@@H]1c1cc(F)cc(F)c1 (racemic) [Structure 24] | 73 | 1010
CC(=O)NCCc1ccccc1-c1ccc([C@H]2CNCC[C@@H]2c2cc(F)cc(F)c2)c(C)c1 (racemic) [Structure 15] | 1.6 | 18
CO[C@]1(c2ccc(F)c(F)c2)CCNC[C@@H]1c1noc(-c2ccccc2CCNC(C)=O)c1Br [Structure 82] | 0.16 | 1.2
Cc1cc(-c2ccccc2CCCO)ccc1[C@H]1CNCC[C@@H]1c1cc(F)cc(F)c1 (racemic) [Structure 7, (+/−)-trans-3-{4′-[4-(3,5-difluorophenyl)piperidin-3-yl]-3′-methylbiphenyl-2-yl}propan-1-ol] | 85 | 3150
COCC(=O)NCCc1ccccc1-c1ccc([C@H]2CNCC[C@@H]2c2ccn(C)c(=O)c2)c(Cl)c1 (racemic) [Structure 64] | 110 | 77
CCOCC(F)(F)COCc1ccc([C@@]2(O)CCNC[C@@H]2c2ccc(-c3ccccc3CCNC(C)=O)cc2C)cc1 [Structure 122] | 0.09 | 0.43
COCC(F)(F)COCc1ccc([C@@]2(O)CCNC[C@@H]2c2ccc(-c3ccccc3CCNC(C)=O)cc2C)nc1 [Structure 123] | 1.2 | 5.6
COC(=O)NCCc1ccccc1-c1ccc([C@H]2CNCC[C@@H]2c2ccc(F)c(F)c2)c(Cl)c1 (racemic) [Structure 42] | 0.14 | 9.8
COc1cc(CCNC(C)=O)c(-c2ccc([C@H]3CNCC[C@@H]3c3ccn(C)c(=O)c3)c(Cl)c2)cc1OC (racemic) [Structure 66] | 1320 | 4900
COC[C@H](C)COCc1ccc([C@@]2(O)CCNC[C@@H]2c2ccc(-c3ccccc3CCNC(=O)OC)cc2C)cc1 [Structure 127] | 0.03 | 1.3
COC[C@H](C)COCc1ccc([C@@]2(O)CCNC[C@@H]2c2ccc(-c3ccccc3CCN3CCOC3=O)cc2C)cc1 [Structure 125] | 4.6 | 76
CC(=O)NCCc1ccc(F)cc1-c1ccc([C@H]2CNCC[C@@H]2c2ccn(C)c(=O)c2)c(Cl)c1 (racemic) [Structure 65] | 6.5 | 6
CC(=O)NCCc1cc(F)ccc1-c1onc([C@H]2CNCC[C@]2(O)c2ccc(F)c(F)c2)c1Br [Structure 86] | 0.14 | 0.68
COC[C@H](C)COc1ccc([C@@]2(O)CCNC[C@@H]2c2ccc(-c3ccccc3CCNC(C)=O)cc2C)cc1 [Structure 131] | 1.2 | 18
COCCCc1ccc(-c2onc([C@H]3CNCC[C@]3(O)c3ccc(F)c(F)c3)c2Br)c(CCNC(C)=O)c1 [Structure 102] | 0.27 | 1.1
Cc1cc(-c2ccccc2CCNC(=O)C2CC2)ccc1[C@H]1CNCC[C@@H]1c1cc(F)cc(F)c1 (racemic) [Structure 31] | 4.4 | 130
